Activity calls are given as the source filed them. The calls are words filed in the database; no cut-off is given here.
Legend:
THP-1 [1] = experiment: Proapoptotic activity in human THP1 cells assessed as late apoptotic cells at 25 uM after 5 hrs by annexin V/propidium iodide staining-based capillary cytometric method relative to control; format: functional
THP-1 [2] = experiment: Proapoptotic activity in human THP1 cells assessed as necrotic cells at 25 uM after 5 hrs by annexin V/propidium iodide staining-based capillary cytometric method relative to control; format: functional
THP-1 [3] = experiment: Proapoptotic activity in human THP1 cells assessed as viable cells at 25 uM after 5 hrs by annexin V/propidium iodide staining-based capillary cytometric method relative to control; format: functional; conditions: THP-1, 5 h, read-out: Activity
THP-1 [4] = experiment: Proapoptotic activity in human THP1 cells assessed as early apoptotic cells at 25 uM after 7 hrs by annexin V/propidium iodide staining-based capillary cytometric method relative to control; format: functional
THP-1 [5] = experiment: Proapoptotic activity in human THP1 cells assessed as late apoptotic cells at 25 uM after 7 hrs by annexin V/propidium iodide staining-based capillary cytometric method relative to control; format: functional
THP-1 [6] = experiment: Proapoptotic activity in human THP1 cells assessed as necrotic cells at 25 uM after 7 hrs by annexin V/propidium iodide staining-based capillary cytometric method relative to control; format: functional
THP-1 [7] = experiment: Proapoptotic activity in human THP1 cells assessed as viable cells at 25 uM after 7 hrs by annexin V/propidium iodide staining-based capillary cytometric method relative to control; format: functional; conditions: THP-1, 7 h, read-out: Activity
NTERA-2-cl-D1 [8] = experiment: Induction of DNA fragmentation in human NT2/D1 cells at 25 uM after 6 to 24 hrs by propidium iodide/RNase staining-based capillary cytometric method; format: functional, cell-based
THP-1 [9] = experiment: Induction of DNA fragmentation in human THP1 cells at 25 uM after 6 to 24 hrs by propidium iodide/RNase staining-based capillary cytometric method; format: functional, cell-based
NTERA-2-cl-D1 [10] = experiment: Induction of apoptosis in human NT2/D1 cells assessed as activation of caspase 3/7 by measuring DNA fragmentation at 25 uM after 3 hrs by 7-AAD staining-based capillary cytometric method; format: functional, cell-based
THP-1 [11] = experiment: Induction of apoptosis in human THP1 cells assessed as activation of caspase 3/7 by measuring DNA fragmentation at 25 uM after 3 hrs by 7-AAD staining-based capillary cytometric method; format: functional, cell-based
NTERA-2-cl-D1 [12] = experiment: Induction of apoptosis in human NT2/D1 cells assessed as activation of caspase 8/9 at 25 uM by 7-AAD staining-based capillary cytometric method; format: functional, cell-based
THP-1 [13] = experiment: Induction of apoptosis in human THP1 cells assessed as activation of caspase 8/9 at 25 uM by 7-AAD staining-based capillary cytometric method; format: functional, cell-based
NTERA-2-cl-D1 [14] = experiment: Induction of apoptosis in human NT2/D1 cells assessed as early apoptotic cells at 25 uM after 4 hrs by annexin V/propidium iodide staining-based capillary cytometric method (reference value: 3.40%); format: functional
NTERA-2-cl-D1 [15] = experiment: Induction of apoptosis in human NT2/D1 cells assessed as late apoptotic cells at 25 uM after 4 hrs by annexin V/propidium iodide staining-based capillary cytometric method (reference value: 0.70%); format: functional
NTERA-2-cl-D1 [16] = experiment: Induction of apoptosis in human NT2/D1 cells assessed as necrotic cells at 25 uM after 4 hrs by annexin V/propidium iodide staining-based capillary cytometric method (reference value: 0.10%); format: functional
NTERA-2-cl-D1 [17] = experiment: Induction of apoptosis in human NT2/D1 cells assessed as viable cells at 25 uM after 4 hrs by annexin V/propidium iodide staining-based capillary cytometric method (reference value: 95.80%); format: functional; conditions: NTERA-2-cl-D1, 4 h, read-out: Activity
NTERA-2-cl-D1 [18] = experiment: Induction of apoptosis in human NT2/D1 cells assessed as early apoptotic cells at 25 uM after 4 hrs in presence of pan caspase inhibitor Z-VAD-fmk by annexin V/propidium iodide staining-based capillary cytometric method (reference value: 3.40%); format: functional
NTERA-2-cl-D1 [19] = experiment: Induction of apoptosis in human NT2/D1 cells assessed as late apoptotic cells at 25 uM after 4 hrs in presence of pan caspase inhibitor Z-VAD-fmk by annexin V/propidium iodide staining-based capillary cytometric method (reference value: 0.70%); format: functional
NTERA-2-cl-D1 [20] = experiment: Induction of apoptosis in human NT2/D1 cells assessed as necrotic cells at 25 uM after 4 hrs in presence of pan caspase inhibitor Z-VAD-fmk by annexin V/propidium iodide staining-based capillary cytometric method (reference value: 0.10%); format: functional
NTERA-2-cl-D1 [21] = experiment: Induction of apoptosis in human NT2/D1 cells assessed as viable cells at 25 uM after 4 hrs in presence of pan caspase inhibitor Z-VAD-fmk by annexin V/propidium iodide staining-based capillary cytometric method (reference value: 95.80%); format: functional; conditions: NTERA-2-cl-D1, 4 h, read-out: Activity
THP-1 [22] = experiment: Induction of apoptosis in human THP1 cells assessed as early apoptotic cells at 25 uM after 4 hrs by annexin V/propidium iodide staining-based capillary cytometric method (reference value: 3.22%); format: functional
THP-1 [23] = experiment: Induction of apoptosis in human THP1 cells assessed as late apoptotic cells at 25 uM after 4 hrs by annexin V/propidium iodide staining-based capillary cytometric method (reference value: 0.34%); format: functional
THP-1 [24] = experiment: Induction of apoptosis in human THP1 cells assessed as late necrotic cells at 25 uM after 4 hrs by annexin V/propidium iodide staining-based capillary cytometric method (reference value: 0.04%); format: functional
THP-1 [25] = experiment: Induction of apoptosis in human THP1 cells assessed as […] cells at 25 uM after 4 hrs by annexin V/propidium iodide staining-based capillary cytometric method (reference value: 96.40%); format: functional
THP-1 [26] = experiment: Induction of apoptosis in human THP1 cells assessed as early apoptotic cells at 25 uM after 4 hrs in presence of pan caspase inhibitor Z-VAD-fmk by annexin V/propidium iodide staining-based capillary cytometric method (reference value: 3.22%); format: functional
THP-1 [27] = experiment: Induction of apoptosis in human THP1 cells assessed as late apoptotic cells at 25 uM after 4 hrs in presence of pan caspase inhibitor Z-VAD-fmk by annexin V/propidium iodide staining-based capillary cytometric method (reference value: 0.34%); format: functional
THP-1 [28] = experiment: Induction of apoptosis in human THP1 cells assessed as late necrotic cells at 25 uM after 4 hrs in presence of pan caspase inhibitor Z-VAD-fmk by annexin V/propidium iodide staining-based capillary cytometric method (reference value: 0.04%); format: functional
THP-1 [29] = experiment: Induction of apoptosis in human THP1 cells assessed as […] cells at 25 uM after 4 hrs in presence of pan caspase inhibitor Z-VAD-fmk by annexin V/propidium iodide staining-based capillary cytometric method (reference value: 96.40%); format: functional

Work on `CNc1nc(-c2cccc(NC(=O)c3cc4ccccc4[nH]3)c2)c[nH]1.Cl` yielded an Activity (THP-1 [1]) of 38.05%, an Activity (THP-1 [2]) of 0.1% and a viability at 25 µM (THP-1 [3]) of 28.6%. The Activity (THP-1 [4]) was 36.14%, the Activity (THP-1 [5]) was 45.9% and the Activity (THP-1 [6]) was 0.2%. The viability at 25 µM (THP-1 [7]) was 17.8%, the Activity (NTERA-2-cl-D1 [8]) was “Active” and the Activity (THP-1 [9]) was “Active”. For the same compound, the Activity (NTERA-2-cl-D1 [10]) was “Active”, the Activity (THP-1 [11]) was “Active” and the Activity (NTERA-2-cl-D1 [12]) was “Active”. For the same compound, the Activity (THP-1 [13]) was “Active”, the Activity (NTERA-2-cl-D1 [14]) was 23.88% and the Activity (NTERA-2-cl-D1 [15]) was 5.16%. For the same compound, the Activity (NTERA-2-cl-D1 [16]) was 0.3%, the viability at 25 µM (NTERA-2-cl-D1 [17]) was 70.7% and the Activity (NTERA-2-cl-D1 [18]) was 8.15%. It also gave an Activity (NTERA-2-cl-D1 [19]) of 2.87%, an Activity (NTERA-2-cl-D1 [20]) of 0.17% and a viability at 25 µM (NTERA-2-cl-D1 [21]) of 88.8%. It also gave an Activity (THP-1 [22]) of 4.96%, an Activity (THP-1 [23]) of 89.44% and an Activity (THP-1 [24]) of 0.26%. It also gave an Activity (THP-1 [25]) of 5.34%, an Activity (THP-1 [26]) of 64.66% and an Activity (THP-1 [27]) of 17.2%. For the same compound, the Activity (THP-1 [28]) was 0.1% and the Activity (THP-1 [29]) was 18.04%.
